Values joined by “and” are separate entries in the source; they are usually repeats but may differ in a detail not shown here. Identical values can stand only once. Inconclusive results and toxic doses are left out. Rule for the calls: active = survival T/C of 150% or more; inactive = T/C below 125% in these data.
Tested on: CD2F1 mice, L1210 leukemia ip, survival T/C
Assay: NCI In Vivo Anticancer Drug Screen. Data for tumor model L1210 Leukemia (intraperitoneal) in CD2F1 (CDF1) mice
Details: higher = longer survival
Method in brief: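 Mice carrying a transplanted tumor received test compound or vehicle alone. The value is the measurement in the treated group divided by that in the vehicle-treated control group.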

[1] = endpoint: mean survival time, dose: 100.0 mg/kg/injection, schedule: Q04DX003 (ip), vehicle: saline with Tween-80
[2] = endpoint: mean survival time, dose: 200.0 mg/kg/injection, schedule: Q04DX003 (ip), vehicle: saline with Tween-80
[3] = endpoint: mean survival time, dose: 400.0 mg/kg/injection, schedule: Q04DX003 (ip), vehicle: saline with Tween-80
[4] = endpoint: mean survival time, dose: 100.0 mg/kg/injection, schedule: Q01DX009 (ip), vehicle: saline with Tween-80
[5] = endpoint: mean survival time, dose: 200.0 mg/kg/injection, schedule: Q01DX009 (ip), vehicle: saline with Tween-80
[6] = endpoint: mean survival time, dose: 400.0 mg/kg/injection, schedule: Q01DX009 (ip), vehicle: saline with Tween-80
[7] = endpoint: mean survival time, dose: 100.0 mg/kg/injection, schedule: Q04DX002 (ip), vehicle: saline with Tween-80
[8] = endpoint: mean survival time, dose: 200.0 mg/kg/injection, schedule: Q04DX002 (ip), vehicle: saline with Tween-80
[9] = endpoint: mean survival time, dose: 50.0 mg/kg/injection, schedule: Q01DX009 (ip), vehicle: saline with Tween-80
[10] = endpoint: mean survival time, dose: 100.0 mg/kg/injection, schedule: Q01DX009 (ip), vehicle: saline
[11] = endpoint: mean survival time, dose: 25.0 mg/kg/injection, schedule: Q01DX009 (ip), vehicle: saline with Tween-80
[12] = endpoint: mean survival time, dose: 12.5 mg/kg/injection, schedule: Q01DX009 (ip), vehicle: saline with Tween-80

Measured: T/C

C[C@H]1C[C@@H]2[C@H]([C@@H](O)C[C@@]3(C)[C@H]2CC[C@]3(O)C(=O)CF)[C@@]2(C)C=CC(=O)C=C12
inactive: endpoint: mean survival time, dose: 100.0 mg/kg/injection, schedule: Q01DX001 (sc), vehicle: steriod suspending solution 98 % of control | endpoint: mean survival time, dose: 200.0 mg/kg/injection, schedule: Q01DX001 (sc), vehicle: steriod suspending solution 101 % of control | endpoint: mean survival time, dose: 400.0 mg/kg/injection, schedule: Q01DX001 (sc), vehicle: steriod suspending solution 108 % of control

CC1=C(C)CC(C(Cl)(Cl)Cl)C([N+](=O)[O-])C1 (stereo unspecified)
inactive: [1] 98 % of control | [2] 96 % of control

CCCCCC(=O)C(CCCC)C(=O)Nc1ccccc1 (stereo unspecified)
inactive: [1] 94 % of control | [2] 96 % of control | [3] 91 % of control

CCCCCCCC(=O)Nc1ccc(-n2c(=O)cc(C)n2C)cc1
inactive: [4] 90 % of control | [1] 90 % of control | [5] 88 % of control | [2] 97 % of control | [6] 86 % of control | [3] 95 % of control

O=P(O)(O)CP(=O)(O)O.[NH-]CC[NH-].[NH-]CC[NH-].[Pt+2].[Pt+2]
inactive: endpoint: mean survival time, dose: 3.13 mg/kg/injection, schedule: Q04DX003 (ip), vehicle: distilled water + Tween-80 119 % of control | endpoint: mean survival time, dose: 6.25 mg/kg/injection, schedule: Q04DX003 (ip), vehicle: distilled water + Tween-80 92 % of control | endpoint: mean survival time, dose: 12.5 mg/kg/injection, schedule: Q04DX003 (ip), vehicle: distilled water + Tween-80 103 % of control | endpoint: mean survival time, dose: 25.0 mg/kg/injection, schedule: Q04DX003 (ip), vehicle: distilled water + Tween-80 109 % of control | endpoint: mean survival time, dose: 50.0 mg/kg/injection, schedule: Q04DX003 (ip), vehicle: distilled water + Tween-80 103 % of control | endpoint: mean survival time, dose: 100.0 mg/kg/injection, schedule: Q04DX003 (ip), vehicle: distilled water + Tween-80 109 % of control | endpoint: mean survival time, dose: 200.0 mg/kg/injection, schedule: Q04DX003 (ip), vehicle: distilled water + Tween-80 90 % of control

O=C(NCc1ccccc1)C(=O)NCc1ccccc1
inactive: [7] 90 % of control | [8] 87 % of control | endpoint: mean survival time, dose: 400.0 mg/kg/injection, schedule: Q04DX002 (ip), vehicle: saline with Tween-80 90 % of control

CC1SC(C(C)(C)C)SC(C)C1C(C)(C)C (stereo unspecified)
inactive: endpoint: mean survival time, dose: 12.5 mg/kg/injection, schedule: Q04DX002 (ip), vehicle: saline with Tween-80 102 % of control | endpoint: mean survival time, dose: 25.0 mg/kg/injection, schedule: Q04DX002 (ip), vehicle: saline with Tween-80 102 % of control | endpoint: mean survival time, dose: 50.0 mg/kg/injection, schedule: Q04DX002 (ip), vehicle: saline with Tween-80 102 % of control

CC1OC(n2ccc(=O)[nH]c2=O)C(O)C(O)C1=O (stereo unspecified)
inactive: endpoint: median survival time, dose: 26.5 mg/kg/injection, schedule: Q01DX005 (ip), vehicle: Klucel (hydroxypropylcellulose) (HPC) 102 % of control | endpoint: median survival time, dose: 53.0 mg/kg/injection, schedule: Q01DX005 (ip), vehicle: Klucel (hydroxypropylcellulose) (HPC) 100 % of control | endpoint: median survival time, dose: 106.0 mg/kg/injection, schedule: Q01DX005 (ip), vehicle: Klucel (hydroxypropylcellulose) (HPC) 107 % of control | endpoint: median survival time, dose: 212.0 mg/kg/injection, schedule: Q01DX005 (ip), vehicle: Klucel (hydroxypropylcellulose) (HPC) 101 % of control

COc1ccc(/C=N/NC(=O)CNC(=O)Nc2cccc([N+](=O)[O-])c2)cc1
inactive: [9] 89 % of control | [4] 93 % of control | [5] 93 % of control

CCCCNC(C)C1(O)Cc2c(O)c3c(c(O)c2C(OC2CC(N)C(O)C(C)O2)C1)C(=O)c1c(OC)cccc1C3=O (stereo unspecified)
inactive: endpoint: mean survival time, dose: 10.0 mg/kg/injection, schedule: Q01DX009 (ip), vehicle: water 121 % of control | endpoint: mean survival time, dose: 160.0 mg/kg/injection, schedule: Q01DX009 (ip), vehicle: water 119 % of control

Cn1ccc(CON)n1
inactive: [10] 94 % of control | endpoint: mean survival time, dose: 200.0 mg/kg/injection, schedule: Q01DX009 (ip), vehicle: saline 93 % of control

CCC(N)Cc1ccc2c(c1)OCO2 (stereo unspecified)
inactive: endpoint: mean survival time, dose: 25.0 mg/kg/injection, schedule: Q01DX009 (ip), vehicle: saline 98 % of control | endpoint: mean survival time, dose: 50.0 mg/kg/injection, schedule: Q01DX009 (ip), vehicle: saline 93 % of control | [10] 96 % of control | [1] 95 % of control

Cc1ccc(C(O)(c2ccccc2)c2ccccc2C(=O)Nc2ccccc2)cc1 (stereo unspecified)
inactive: [1] 88 % of control | [2] 90 % of control | [3] 95 % of control

O=C(CNC(=O)c1ccccc1)N/N=C/c1ccco1
inactive: [4] 94 % of control | [5] 90 % of control | [6] 95 % of control

CCCCCCCCCCCC[n+]1cccc2ccccc21
inactive: endpoint: mean survival time, dose: 0.35 mg/kg/injection, schedule: Q01DX009 (ip), vehicle: saline 106 % of control | endpoint: mean survival time, dose: 0.7 mg/kg/injection, schedule: Q01DX009 (ip), vehicle: saline 111 % of control | endpoint: mean survival time, dose: 1.4 mg/kg/injection, schedule: Q01DX009 (ip), vehicle: saline 117 % of control

CN(c1ccccc1)c1ccc(N=Nc2nc3ccccc3s2)cc1
inactive: endpoint: mean survival time, dose: 100.0 mg/kg/injection, schedule: Q01DX001 (ip), vehicle: saline with Tween-80 95 % of control | endpoint: mean survival time, dose: 200.0 mg/kg/injection, schedule: Q01DX001 (ip), vehicle: saline with Tween-80 98 % of control | endpoint: mean survival time, dose: 400.0 mg/kg/injection, schedule: Q01DX001 (ip), vehicle: saline with Tween-80 87 % of control

CC(SC(C)c1ccccc1)c1ccccc1 (stereo unspecified)
inactive: [4] 98 % of control | [1] 90 % of control | [5] 98 % of control | [2] 93 % of control | [6] 102 % of control | [3] 90 % of control

CCCCCCCCCC(O)CCCCCCCCC
inactive: endpoint: mean survival time, dose: 100.0 mg/kg/injection, schedule: Q01DX009 (ip), vehicle: other 102 % of control | endpoint: mean survival time, dose: 100.0 mg/kg/injection, schedule: Q04DX003 (ip), vehicle: other 103 % of control | endpoint: mean survival time, dose: 200.0 mg/kg/injection, schedule: Q01DX009 (ip), vehicle: other 91 % of control | endpoint: mean survival time, dose: 200.0 mg/kg/injection, schedule: Q04DX003 (ip), vehicle: other 94 % of control | endpoint: mean survival time, dose: 400.0 mg/kg/injection, schedule: Q01DX009 (ip), vehicle: other 91 % of control | endpoint: mean survival time, dose: 400.0 mg/kg/injection, schedule: Q04DX003 (ip), vehicle: other 94 % of control

COc1ccc(N=C2C=CC(=O)O2)cc1
inactive: [11] 95 % of control | [9] 100 % of control | [4] 97 % of control | [1] 101 % of control

O=C(O)c1cccc(F)c1Cl
inactive: [7] 95 % of control | [8] 102 % of control

Oc1cc2ccccc2c(-c2c(O)c(O)cc3ccccc23)c1O
inactive: [12] 103 % of control | [11] 100 % of control and 103 % of control | [9] 103 % of control and 105 % of control | [4] 100 % of control and 109 % of control | [5] 96 % of control

COc1cc2c[n+](C)c3c4cc5c(cc4ccc3c2cc1OC)OCO5
inactive: endpoint: mean survival time, dose: 1.0 mg/kg/injection, schedule: Q01DX009 (ip), vehicle: other 104 % of control | endpoint: mean survival time, dose: 1.0 mg/kg/injection, schedule: Q01DX009 (ip), vehicle: water 102 % of control and 104 % of control | endpoint: mean survival time, dose: 2.0 mg/kg/injection, schedule: Q01DX009 (ip), vehicle: other 109 % of control | endpoint: mean survival time, dose: 2.0 mg/kg/injection, schedule: Q01DX009 (ip), vehicle: water 117 % of control and 112 % of control | endpoint: mean survival time, dose: 4.0 mg/kg/injection, schedule: Q01DX009 (ip), vehicle: other 104 % of control | endpoint: mean survival time, dose: 4.0 mg/kg/injection, schedule: Q01DX009 (ip), vehicle: water 116 % of control and 120 % of control | endpoint: mean survival time, dose: 6.25 mg/kg/injection, schedule: Q01DX009 (ip), vehicle: saline with Tween-80 120 % of control | endpoint: mean survival time, dose: 8.0 mg/kg/injection, schedule: Q01DX009 (ip), vehicle: other 115 % of control | endpoint: mean survival time, dose: 8.0 mg/kg/injection, schedule: Q01DX009 (ip), vehicle: water 115 % of control and 121 % of control | endpoint: mean survival time, dose: 8.0 mg/kg/injection, schedule: Q04DX003 (ip), vehicle: water 108 % of control | [12] 114 % of control | endpoint: mean survival time, dose: 16.0 mg/kg/injection, schedule: Q01DX009 (ip), vehicle: other 116 % of control | endpoint: mean survival time, dose: 16.0 mg/kg/injection, schedule: Q01DX009 (ip), vehicle: water 118 % of control and 120 % of control | endpoint: mean survival time, dose: 16.0 mg/kg/injection, schedule: Q04DX003 (ip), vehicle: water 117 % of control | [11] 104 % of control | endpoint: mean survival time, dose: 32.0 mg/kg/injection, schedule: Q04DX003 (ip), vehicle: water 120 % of control | endpoint: mean survival time, dose: 40.0 mg/kg/injection, schedule: Q01DX009 (ip), vehicle: water 115 % of control and 116 % of control | [9] 98 % of control | endpoint: mean survival time, dose: 64.0 mg/kg/injection, schedule: Q04DX003 (ip), vehicle: water 121 % of control | endpoint: mean survival time, dose: 80.0 mg/kg/injection, schedule: Q01DX009 (ip), vehicle: water 103 % of control | endpoint: mean survival time, dose: 128.0 mg/kg/injection, schedule: Q04DX003 (ip), vehicle: water 101 % of control

Nc1ncnc2nc(-c3ccccc3)[nH]c12
inactive: [1] 100 % of control | [2] 99 % of control | [3] 99 % of control
